ChEMBL document CHEMBL1201862, “PubChem BioAssay data set” (2004)
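96-well plates; 48 h exposure; 5 concentrations. Endpoints by linear interpolation between flanking doses. Not reached: highest tested concentration assigned. Here, GI50 denotes the concentration required for 50% inhibition of growth.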 Active and inactive are the calls of the source. Rule as the data show it: active = GI50 up to about 1.1 µM and inactive = higher.

How the values were obtained:
Assay in all cases: inhibition of tumour cell growth, NCI panel, 48 h
786-0 = system: 786-0
A498 = system: A498
A549 = system: A549
ACHN = system: ACHN
CAKI-1 = system: CAKI-1
CCRF-CEM = system: CCRF-CEM
COLO 205 = system: COLO 205
DLD-1 = system: DLD-1
DMS-114 = system: DMS-114
DMS-273 = system: DMS-273
EKVX = system: EKVX
HCC 2998 = system: HCC 2998
HCT-116 = system: HCT-116
HCT-15 = system: HCT-15
HL-60 = system: HL-60
HOP-18 = system: HOP-18
HOP-62 = system: HOP-62
HOP-92 = system: HOP-92
HT-29 = system: HT-29
IGROV-1 = system: IGROV-1
K562 = system: K562
KM-20L2 = system: KM-20L2
KM12 = system: KM12
LOX IMVI = system: LOX IMVI
LXFL 529 = system: LXFL 529
M14 = system: M14
M19-MEL = system: M19-MEL
MOLT-4 = system: MOLT-4
Malme-3M = system: Malme-3M
NCI-H226 = system: NCI-H226
NCI-H23 = system: NCI-H23
NCI-H460 = system: NCI-H460
NCI-H522 = system: NCI-H522
OVCAR-3 = system: OVCAR-3
OVCAR-4 = system: OVCAR-4
OVCAR-5 = system: OVCAR-5
OVCAR-8 = system: OVCAR-8
RPMI-8226 = system: RPMI-8226
RXF 393 = system: RXF 393
SF-268 = system: SF-268
SF-295 = system: SF-295
SK-MEL-28 = system: SK-MEL-28
SK-MEL-2 = system: SK-MEL-2
SK-MEL-5 = system: SK-MEL-5
SK-OV-3 = system: SK-OV-3
SN12C = system: SN12C
SNB-19 = system: SNB-19
SNB-75 = system: SNB-75
SNB-78 = system: SNB-78
SR = system: SR
SW-620 = system: SW-620
TK-10 = system: TK-10
U-251 = system: U-251
UACC-257 = system: UACC-257
UACC-62 = system: UACC-62
UO-31 = system: UO-31

How did the GI50 (786-0) turn out when CCCCCCCCCCCC(=O)OCCOCCOCCOCCOCCOCc1ccccc1 was run?
The GI50 was > 100 µM (inactive).

What about the GI50 (A498) of the same compound?
The GI50 was > 100 µM (inactive).

What about the GI50 (A549) of the same compound?
Its GI50 is > 100 µM (inactive).

What about the GI50 (ACHN) of the same compound?
Its GI50 is > 100 µM (inactive).

What about the GI50 (CAKI-1) of the same compound?
The GI50 was > 100 µM (inactive).

And the GI50 (CCRF-CEM)?
The GI50 was > 100 µM (inactive).

What about the GI50 (COLO 205) of the same compound?
Its GI50 is > 100 µM (inactive).

What about the GI50 (DLD-1) of the same compound?
Its GI50 is > 100 µM (inactive).

And the GI50 (DMS-114)?
Its GI50 is > 100 µM (inactive).

What about the GI50 (DMS-273) of the same compound?
Its GI50 is > 100 µM (inactive).

And the GI50 (EKVX)?
Its GI50 is > 100 µM (inactive).

What about the GI50 (HCC 2998) of the same compound?
Its GI50 is > 100 µM (inactive).

What about the GI50 (HCT-116) of the same compound?
Its GI50 is > 100 µM (inactive).

What about the GI50 (HCT-15) of the same compound?
Its GI50 is greater than 100 µM.

And the GI50 (HL-60)?
The GI50 was 34.4 µM (inactive).

What about the GI50 (HOP-18) of the same compound?
The GI50 was > 100 µM (inactive).

What about the GI50 (HOP-62) of the same compound?
Its GI50 is > 100 µM (inactive).

What about the GI50 (HOP-92) of the same compound?
Its GI50 is > 100 µM (inactive).

What about the GI50 (HT-29) of the same compound?
The GI50 was > 100 µM (inactive).

What about the GI50 (IGROV-1) of the same compound?
Its GI50 is > 100 µM (inactive).

What about the GI50 (K562) of the same compound?
The GI50 was > 100 µM (inactive).

And the GI50 (KM-20L2)?
The GI50 was > 100 µM (inactive).

And the GI50 (KM12)?
The GI50 was > 100 µM (inactive).

And the GI50 (LOX IMVI)?
Its GI50 is > 100 µM (inactive).

What about the GI50 (LXFL 529) of the same compound?
Its GI50 is > 100 µM (inactive).

What about the GI50 (M14) of the same compound?
Its GI50 is > 100 µM (inactive).

And the GI50 (M19-MEL)?
Its GI50 is > 100 µM (inactive).

What about the GI50 (MOLT-4) of the same compound?
Its GI50 is > 100 µM (inactive).

What about the GI50 (Malme-3M) of the same compound?
The GI50 was > 100 µM (inactive).

What about the GI50 (NCI-H226) of the same compound?
The GI50 was > 100 µM (inactive).

What about the GI50 (NCI-H23) of the same compound?
The GI50 was > 100 µM (inactive).

What about the GI50 (NCI-H460) of the same compound?
Its GI50 is > 100 µM (inactive).

What about the GI50 (NCI-H522) of the same compound?
The GI50 was > 100 µM (inactive).

And the GI50 (OVCAR-3)?
Its GI50 is > 100 µM (inactive).

What about the GI50 (OVCAR-4) of the same compound?
The GI50 was > 100 µM (inactive).

What about the GI50 (OVCAR-5) of the same compound?
The GI50 was > 100 µM (inactive).

And the GI50 (OVCAR-8)?
The GI50 was > 100 µM (inactive).

And the GI50 (RPMI-8226)?
Its GI50 is > 100 µM (inactive).

And the GI50 (RXF 393)?
The GI50 was > 100 µM (inactive).

And the GI50 (SF-268)?
Its GI50 is > 100 µM (inactive).

What about the GI50 (SF-295) of the same compound?
Its GI50 is > 100 µM (inactive).

What about the GI50 (SK-MEL-28) of the same compound?
The GI50 was > 100 µM (inactive).

What about the GI50 (SK-MEL-2) of the same compound?
The GI50 was > 100 µM (inactive).

What about the GI50 (SK-MEL-5) of the same compound?
Its GI50 is > 100 µM (inactive).

And the GI50 (SK-OV-3)?
The GI50 was > 100 µM (inactive).

And the GI50 (SN12C)?
The GI50 was > 100 µM (inactive).

And the GI50 (SNB-19)?
Its GI50 is > 100 µM (inactive).

What about the GI50 (SNB-75) of the same compound?
Its GI50 is > 100 µM (inactive).

What about the GI50 (SNB-78) of the same compound?
Its GI50 is > 100 µM (inactive).

What about the GI50 (SR) of the same compound?
Its GI50 is > 100 µM (inactive).

And the GI50 (SW-620)?
Its GI50 is > 100 µM (inactive).

What about the GI50 (TK-10) of the same compound?
Its GI50 is > 100 µM (inactive).

And the GI50 (U-251)?
Its GI50 is > 100 µM (inactive).

And the GI50 (UACC-257)?
The GI50 was > 100 µM (inactive).

And the GI50 (UACC-62)?
The GI50 was > 100 µM (inactive).

And the GI50 (UO-31)?
The GI50 was > 100 µM (inactive).
